The text below walks through data of patent publication US20210302318A1, “MEANS AND METHOD FOR THE REAL-TIME ANALYSIS OF HARVESTED CROPS” (THE STATE OF ISRAEL, MINISTRY OF AGRICULTURE & RURAL …, priority 2018, published 2021).

This assay has as its system insects in wheat. As to the kind of experiment: Monitoring efficiency of Deltamethrin pest control treatment in wheat with the TV1061 sensor. The class given is in vivo. Conditions: FIG. 13. On the procedure:
Reference is now made to FIG. 13 showing monitoring efficiency of Deltamethrin pest control treatment in wheat. To determinate system capability to test the efficiency of the pest control treatments, infected and clean wheat were treated with Deltamethrin. Then, sensor (with TV1061 strain) was placed into the treated chambers. […] Deltamethrin is not effective against eggs inside the wheat. Therefore insects inside wheat (in eggs) will be destroyed at the time when they will hatch and walk out. […] Then decreasing in the sensor responses to the background levels may be explained by killing these insects by Deltamethrin residues on the wheat.

Molecules are shown by their SMILES.

Take `CC1(C)[C@H](C(=O)O[C@H](C#N)c2cccc(Oc3ccccc3)c2)[C@@H]1C=C(Br)Br` [Deltamethrin]: for the setting “eggs inside the wheat, sensor response increased on the third day after sanitization”, the “effectiveness against eggs inside the wheat” value was “not effective”. Besides, under “infected and clean wheat treated, inferred from similar TV1061 sensor responses in infected and uninfected sample”, the “pest control efficiency (insects in infected wheat)” value is given as “all insects were destroyed”.
